In experiment [1] the target is T1, VR1 (Homo sapiens, UniProt Q8NER1). Kind of experiment: Acid stimulation assay (FDSS 6000). The class given is cell-based. As to conditions: final assay buffer pH5.8, 15 min pre-incubation. The procedure: The Acid-induced changes in the intracellular calcium concentration were monitored using FDSS 6000 (Hamamatsu Photonics, Japan), a fluorometric imaging system. The cell suspension in resting buffer (HBSS supplemented with 10 mM HEPES, pH 7.4) was pre-incubated with varying concentrations of the test compounds or resting buffer (buffer control) for 15 minutes at room temperature under dark conditions. The cells were automatically added the stimulating solution (HBSS supplemented with MES, final assay buffer pH5.8) by the FDSS 6000.
Target sequence in this assay (Q8NER1 whole entry, species assumed): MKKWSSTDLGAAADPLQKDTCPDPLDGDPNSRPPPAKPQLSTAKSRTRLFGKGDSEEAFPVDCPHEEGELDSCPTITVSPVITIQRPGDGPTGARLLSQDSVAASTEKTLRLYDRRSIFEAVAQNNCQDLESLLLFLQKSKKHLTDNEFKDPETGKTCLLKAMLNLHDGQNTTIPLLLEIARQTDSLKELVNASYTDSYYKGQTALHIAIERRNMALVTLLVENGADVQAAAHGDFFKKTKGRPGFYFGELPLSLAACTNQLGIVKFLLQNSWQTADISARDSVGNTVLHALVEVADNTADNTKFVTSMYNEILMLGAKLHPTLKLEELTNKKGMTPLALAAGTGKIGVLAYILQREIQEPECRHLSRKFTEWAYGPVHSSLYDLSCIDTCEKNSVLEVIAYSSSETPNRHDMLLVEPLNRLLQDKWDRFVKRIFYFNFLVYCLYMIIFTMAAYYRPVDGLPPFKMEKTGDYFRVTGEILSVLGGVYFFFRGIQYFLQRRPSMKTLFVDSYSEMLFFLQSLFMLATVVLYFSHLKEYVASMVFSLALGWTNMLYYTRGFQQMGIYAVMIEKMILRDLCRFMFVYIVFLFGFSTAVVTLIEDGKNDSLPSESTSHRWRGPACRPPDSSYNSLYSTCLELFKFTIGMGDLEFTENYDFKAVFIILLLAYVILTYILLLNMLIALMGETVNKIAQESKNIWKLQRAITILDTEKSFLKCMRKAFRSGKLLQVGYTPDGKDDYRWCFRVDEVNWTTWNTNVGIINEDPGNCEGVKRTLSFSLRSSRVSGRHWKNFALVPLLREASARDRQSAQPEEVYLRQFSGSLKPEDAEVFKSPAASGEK

The target in experiment [2] is T1, VR1. Nature of the experiment: Calcium uptake assay, low pH (proton) agonist. The class given is cell-based. Set-up: expressed in transfected cells; host or cells: T-REx HEK 293 (Invitrogen), pcDNA5/TO vector.
Target sequence in this assay (Q8NER1 whole entry): as the sequence (Q8NER1 whole entry, species assumed) above
Setting [3] is: HEK293, 0.3 μM compound, low pH (protons) as agonist, HEK 293 cells expressing hVR1, read-out: Low pH % Inhib. @ 0.3 μM.

SMILES strings stand for the structures. Where two headings read alike, the source gives them in different places.

On to `Cc1cc(/C=C/C(F)(F)F)ccc1C(=O)Nc1cccc2c1C[C@@H](O)CC2` (single isomer, unassigned) [Compound 313], for which the IC50 on VR1 [1] stood at 14 nM. Moreover, at VR1 [2] (setting [3]), the inhibition at 0.3 µM was 106%. On VR1 [1], `Cc1cc(/C=C/C(F)(F)F)ccc1C(=O)Nc1ccc2c(c1)N(C(=O)CO)CC2` [Compound 407, (E)-N-(1-(2-hydroxyacetyl)-indolin-yl)-2-methyl-4-(3,3,3-trifluoro-Prop-1-enyl)benzamide] showed an IC50 of 32 nM. Besides, the inhibition at 0.3 µM on VR1 [2] (setting [3]) came out at 95%.

`Cc1cc(/C=C/C(F)(F)F)ccc1C(=O)Nc1ccc2nccnc2c1` [Compound 325, (E)-2-methyl-N-(Quinoxalin-6-yl)-4-(3,3,3-trifluoroprop-1-enyl)benzamide]: at VR1 [1], 147 nM corresponded to half-maximal inhibition (IC50). Also, the inhibition at 0.3 µM at VR1 [2] (setting [3]) came out at 72.3%. The corresponding values for `Cc1cc(/C=C/C(F)(F)F)ccc1C(=O)Nc1ccc2c(c1)C(O)CCC2` (stereo not drawn) [Compound 307, (E)-N-(8-hydroxy-5,6,7,8-tetrahydronaphthylen-2-yl)-2-methyl-4-(3,3,3-trifluoroprop-1-enyl)benzamide] are 118 nM and 75%. The molecule `CCC(=O)N1CCc2ccc(NC(=O)c3ccc(/C=C/C(F)(F)F)cc3C)cc21` [Compound 406, (E)-2-methyl-N-(1-propionylindoline-6-yl]-4-(3,3,3-trifluoro-prop-1-enyl)benzamide] had an IC50 on VR1 [1] of 323 nM. At VR1 [2] (setting [3]), the inhibition at 0.3 µM came out at 45%. For `Cc1cc(/C=C/C(F)(F)F)ccc1C(=O)Nc1ccc2c(c1)N(S(C)(=O)=O)CC2` [Compound 401, (E)-N-(1-methanesulfonyl-2,3-dihydro-1H-indol-6-yl]-2-methyl-4-(3,3,3-trifluoroprop-1-enyl)benzamide] the same measures were 94 nM and 88%. `Cc1cc(/C=C/C(F)(F)F)ccc1C(=O)Nc1cnc2c(c1)CCCC2` [Compound 312] displayed an IC50 on VR1 [1] of 103 nM. For the same molecule, the inhibition at 0.3 µM on VR1 [2] (setting [3]) was found to be 97%. As to `Cc1cc(/C=C/C(F)(F)F)ccc1C(=O)Nc1ccc2sc(C(C)(C)O)nc2c1` [Compound 409, (E)-N-(2-(2-hydroxypropan-2-yl)benzo[d]thiazol-5-yl)-2-methyl-4-(3,3,3-trifluoroprop-1-enyl)benzamide], the IC50 at VR1 [1] was found to be 59 nM. Also, at VR1 [2] (setting [3]), the inhibition at 0.3 µM turned out to be 103%. For `Cc1cc(/C=C/C(F)(F)F)ccc1C(=O)Nc1cnc2c(c1)COC(CO)C2` (stereo not drawn) [Compound 310, (E)-N-(7-hydroxymethyl-7,8-dihydro-5H-pyrano[4,3-b]pyridin-3-yl)-2-methyl-4-(3,3,3-trifluoroprop-1-enyl)benzamide] the same measures were 109 nM and 71%. With `Cc1cc(/C=C/C(F)(F)F)ccc1C(=O)Nc1cccc2c1C[C@H](O)CC2` (single isomer, unassigned) [Compound 314], the midpoint of inhibition against VR1 [1], the IC50, lay at 23 nM. Further, the inhibition at 0.3 µM on VR1 [2] (setting [3]) came out at 121%. Regarding `Cc1cc(/C=C/C(F)(F)F)ccc1C(=O)Nc1ccc2oc(CO)nc2c1` [Compound 411, (E)-N-(2-(hydroxymethyl)benzo[d]oxazol-5-yl)-2-methyl-(3,3,3-trifluoroprop-1-enyl)benzamide], it took 28 nM to reach half-maximal inhibition against VR1 [1] (IC50). Also, the inhibition at 0.3 µM on VR1 [2] (setting [3]) amounted to 102%. For the molecule `CC(=O)n1ccc2cc(NC(=O)c3ccc(/C=C/C(F)(F)F)cc3C)cnc21` [Compound 408, (E)-N-(1-acetyl-1H-pyrrolo[2,3-b]pyridin-5-yl]-2-methyl-4-(3,3,3-trifluoroprop-1-enyl)benzamide], the IC50 on VR1 [1] amounted to 61 nM. For the same molecule, the inhibition at 0.3 µM on VR1 [2] (HEK293, read-out: Low pH % Inhib. @ 0.3 μM) was determined as 91%. In the case of `Cc1cc(/C=C/C(F)(F)F)ccc1C(=O)Nc1ccc2sc(C(C)O)nc2c1` (stereo not drawn) [Compound 403], on VR1 [1], the IC50 was found to be 147 nM. Besides, the inhibition at 0.3 µM on VR1 [2] (setting [3]) came to 81%. The corresponding values for `CC(=O)c1nc2cc(NC(=O)c3ccc(/C=C/C(F)(F)F)cc3C)ccc2s1` [Compound 410, (E)-N-(2-acetylbenzo[d]thiazol-5-yl)-2-methyl-4-(3,3,3-trifluoroprop-1-enyl)benzamide] are 707 nM and 12%. Consider `Cc1cc(/C=C/C(F)(F)F)ccc1C(=O)Nc1ccc2c(c1)C(=O)CCC2` [Compound 306, (E)-2-methyl-N-(8-oxo-5,6-7,8-tetrahydronaphthylen-2-yl)-4(3,3,3-trifluoroprop-1-enyl)benzamide], for which, on VR1 [2] (setting [3]), the inhibition at 0.3 µM amounted to 51%.

Consider `CC(=O)c1cnc2cc(NC(=O)c3ccc(/C=C/C(F)(F)F)cc3C)cnc2c1` [Compound 324], for which the inhibition at 0.3 µM at VR1 [2] (setting [3]) was 0.74%.

As a reminder, the IC50 is the midpoint of a concentration-inhibition curve.

Source of the values: patent US20100004222A1, “Amide Derivatives as Ion-Channel Ligands and Pharmaceutical Compositions and Methods of Using the Same” (Renovis, Inc., priority 2006, published 2010).
